Test results reported in patent US9266829B2, “Quinone compounds and their uses for the treatment of cancer” (Onco-NX Limited, priority 2012, dated 2016).
Converted amounts (≈) assume the structure as drawn. “Also recorded” adds a separate entry of the source.

Key:
MDA-MB-468-NQ01 = assay: In vivo hollow fibre assay, MDA-MB-468-NQ01; parameters: species or system mice
Protocol: The activity of Es5 (4.65) was evaluated in vivo against 3 cancer cell lines H460, MDA-MB-468-NQ01 and MDA-MB-468-MOCK using the in vivo hollow fibre assay (HFA), with fibres implanted at both intraperitoneal (i.p.) and subcutaneous (s.c.) sites. Es5 and the control agent Doxorubicin were administered as multiple doses by intraperitoneal injection (i.p.) on days 3, 4, 5 & 6 at 0.5 mg/kg/day and 2.5 mg/kg/day respectively.
Three human tumour cell lines were selected for analysis: H460 NSCLC (from ICT) and two breast carcinoma lines MDA-MB-468-NQ01 and MDA-MB-468-MOCK (both supplied by Onco-NX). Cells were cultured in RPMI 1640 cell culture medium supplemented with 1 mM sodium pyruvate, 2 mM L-glutamine and 10% foetal bovine serum (all from Sigma), and maintained as monolayer cultures at 37° C. in a humidified 5% CO2 environment.
Female Balb/C immunodeficient nude mice aged 6-8 weeks were used (Harlan UK, Blackthorn, UK). Mice were kept in cages housed in isolation cabinets in an air-conditioned room with regular alternating cycles of light and darkness. They received Teklad 2018 diet (Harlan, Blackthorn, UK) and water ad libitum. All animal procedures were carried out under a project licence issued by the UK Home Office and UKCCCR guidelines were followed throughout.
Cells were loaded into sterilised colour-coded PVDF Spectra/Por hollow fibres (HF) (Spectrum Medical Inc, Houston, Tex., USA). Briefly cells were harvested and resuspended in cell culture medium at the required cell density. This preparation was then loaded into the HF and the ends were clamped and heat-sealed. The HF was then cut into 1.5 cm lengths which were again heat-sealed at both ends, and then transferred to 6-well plates containing medium before implantation for the in vivo experiments, or were incubated at 37° C. in a humidified 5% CO2 environment for varying times before processing using the modified MTT assay as described below.
For the in vivo experiments, under brief inhalation anaesthesia (2% isoflurane), one loaded hollow fibre for each of the cell lines was transplanted intraperitoneally or subcutaneously on the dorsal flank of each mouse and the mice were allowed to recover. Each group consisted of 6 mice and the implantation day was termed ‘day 0’.
For assessment of the therapeutic response of Es5 (4.65), on days 3, 4, 5 & 6 mice were treated with Es5 (4.65) at 0.5 mg/kg/day or Doxorubicin at 2.5 mg/kg/day.
Mice were sacrificed on day 7 post-implantation, fibres removed, and cell survival analysed using a modified MTT assay, comparing absorbances seen for the treated groups with the corresponding untreated control group. Statistical analysis was carried out using a Student's t-test.

esterases [1] = assay: Cell lysate esterase reaction, MDA NQ01 cell extract; format: in vitro ADME, human; settings: human, MDA NQ01 cell line extract (cell lysate)
Source text: (§1) The cleavage of Es5 by esterase and cell extracts and its activation were investigated.
(§2) The degradation of Es5 by esterases from cell lysate of the two cell lines MDA NQ01 and MDA468 was investigated.

MDA NQ01 cell extract = assay: as above; format: in vitro ADME, human
Source text: as §1, §2

physchem [2] = format: physicochemical; settings: buffer, pH 7
MDA468 cells = assay: Combination index at IC50 with other anti-cancer agents in MDA468 cells; format: cell-based, human
physchem [3] = assay: physchem
NQ01 cells = assay: Combination index at IC50 with other anti-cancer agents in NQ01 cells; format: cell-based, human
MDA468NQ01 = assay: DNA damage, Comet assay, MDA468NQ01 cells; format: cell-based, human; settings: 10 nM for 2 hrs, compared to H2O2 alone
Protocol: (§3) DNA damage was measured using the Comet assay to investigate the effect of Es5 on the comet head and tail intensities following treatment of MDA468NQ01 and the DT-diaphorase null MDA468 cell lines. […] Without wishing to be bound by any particular theory, the inventors believe that this must arise by a different mechanism such as 2×one electron reductions, rather than the 2 electron reduction that occurs with DT-diaphorase.

MDA468 = assay: IC50 by MTT assay on MDA468 cells; format: cell-based, human
[4] = tested on: DT-diaphorase null MDA468; assay: DNA damage, Comet assay, DT-diaphorase null MDA468 cells; format: cell-based, human
Protocol: as §3

esterases [5] = assay: Cell lysate esterase reaction, MDA468 cell extract; format: in vitro ADME, human; settings: human, MDA468 cell extract (cell lysate)
Source text: as §1, §2

MDA468 cell extract = assay: Cell lysate esterase reaction, MDA468 cell extract; format: in vitro ADME, human
Source text: as §1, §2

physchem [6] = format: physicochemical
Protocol: The stability of esters and their hydrolysis products was measured in solution. (50 μM Es5 in Tris buffer (0.1 mol dm^−3) at pH 7.4). Samples were taken at timed intervals up to 24 hours and analysed by HPLC. The detection wavelength was 330 nm. Chromatographic analysis was carried out by isocratic elution with 30:70 MeOH: Tris buffer (0.1 mol dm^−3, pH 7.4), at 1 ml min^−1. The chromatographic separation of the drug was achieved using a Hypersil ODS column with 250 mm×4.6 mm I.D.

esterase = assay: Degradation by porcine liver esterase; format: in vitro ADME; settings: pig, porcine liver esterase
Source text: as §1

porcine liver esterase = assay: Degradation by porcine liver esterase; format: in vitro ADME; settings: in words
Source text: as §1

[7] = tested on: DT-diaphorase null MDA 468 cells; assay: Apoptosis by Annexin V binding, DT-diaphorase null MDA 468 cells; format: cell-based, human
Protocol: Based on the method described in Martin et al. (Journal of Experimental Medicine. 182, 1545-1556. 1995), the induction of apoptosis caused by the compounds of the present invention was determined.

CC(=O)OCCCC1=C(N2CC2)C(=O)C(C)=C(N2CC2)C1=O [Es5, Acetic Acid 3-(2,5-bis-aziridin-1-yl-4-methyl-3,6-dioxo-cyclohexa-1,4-dienyl)-propyl ester]
cell survival compared to the untreated control, MDA-MB-468-NQ01, i.p. site (MDA-MB-468-NQ01; fibres at i.p. site, i.p. dosing days 3-6, nude mice, p<0.01): significant efficacy
efficacy in the NQ01-expressing compared to the Mock MDA-MB-468 cell line (MDA-MB-468-NQ01; hollow fibre assay): improved efficacy
half-life (esterases [1]; Degradation by MDA NQ01 cell extract, t1/2): 2.67 h
half-life (esterases [1]; room temperature, degraded to the alcohol 4.61, read-out: half-life in MDA NQ01 cell line extract): ~2.67 h
Degradation by MDA NQ01 cell extract, rate (MDA NQ01 cell extract; human, MDA NQ01 cell line extract (cell lysate)): (11.25 nmoles/hr/10^6 nmoles/hr/10^6 cells
cleavage of the ester by MDA468 NQ01 cell extract (MDA NQ01 cell extract; in words): rapidly cleaved
half-life at 50 μM (physchem [2]): > 24 h
Combination index at IC50 with ARC-C in MDA468 cells (MDA468 cells; with ARC-C): 1.2 (slight
Combination index at IC50 with Cis-platinum in MDA468 (MDA468 cells): synergy
Combination index at IC50 with Cis-platinum in MDA468 (MDA468 cells; listed as Es5 (4.65)): 0.567 (synergy)
Combination index at IC50 with Docetaxel in MDA468 cells (MDA468 cells): moderately inhibitory effect
Combination index at IC50 with Docetaxel in MDA468 cells (MDA468 cells; listed as Es5 (4.65)): 1.387 (moderately
Combination index at IC50 with Epirubicin in MDA468 cells (MDA468 cells; with Epirubicin): 1.49 (antagonism)
Combination Index at IC50 with Mitomycin C in MDA468 cells (MDA468 cells): slight antagonism
Combination Index at IC50 with Mitomycin C in MDA468 cells (MDA468 cells; listed as Es5 (4.65)): 1.4 (slight
Combination index at IC50 with cobalt chloride in MDA468 cells (MDA468 cells): strong synergy
Combination index at IC50 with cobalt chloride in MDA468 cells (MDA468 cells; listed as Es5 (4.65)): 0.464 (strong
solubility (physchem [3]; aqueous buffer): 150 µg/mL (≈ 0.493 mM)
solubility (physchem [3]; organic solvent or mixture): 9400 µg/mL (≈ 30.9 mM)
Combination index at IC50 with ARA-C in NQ01 cells (NQ01 cells; with ARA-C): 1.22 (slight
Combination index at IC50 with Cis-platinum in MDA NQ01 (NQ01 cells): synergy
Combination index at IC50 with Cis-platinum in MDA NQ01 (NQ01 cells; listed as Es5 (4.65)): 0.674 (synergy)
Combination index at IC50 with Docetaxel in NQ01 cells (NQ01 cells): additive effect
Combination index at IC50 with Docetaxel in NQ01 cells (NQ01 cells; listed as Es5 (4.65)): 0.964 (additive)
Combination index at IC50 with Epirubicin in NQ01 cells (NQ01 cells; with Epirubicin): 2.04 (antagonism)
Combination Index at IC50 with Mitomycin C in NQ01 cells (NQ01 cells): additive effect
Combination Index at IC50 with Mitomycin C in NQ01 cells (NQ01 cells; listed as Es5 (4.65)): 0.924 (additive)
Combination index at IC50 with cobalt chloride in NQ01 cells (NQ01 cells): strong synergy
Combination index at IC50 with cobalt chloride in NQ01 cells (NQ01 cells; listed as Es5 (4.65)): 0.54
Comet assay head and tail intensities (DNA cross-linking) (MDA468NQ01): increased the proportion of DNA in the head
IC50 (MDA468; Homo sapiens): 25 nM
IC50 (MDA468; listed as Es5 (4.65)): 20 to 25 nM
Comet assay tail intensity (DNA cross-linking) ([4]; DT-diaphorase deficient cell line, compared to H2O2 alone): did not reduce tail intensity
Comet assay, DNA cross-linking after 6 hours of incubation ([4]; DT-diaphorase null cell line, 6 hours): evidence of cross-linking
half-life (esterases [5]): 4.67 h
Degradation by MDA468 cell extract, rate (MDA468 cell extract; human, MDA468 cell extract (cell lysate)): (19.6 nmoles/hr/10^6 nmoles/hr/10^6 cells
cleavage of the ester by MDA 468 cell extract (MDA468 cell extract; in words, compared with MDA468 NQ01 extract): much reduced rate; also recorded: appreciably lower rate
more stable than other esters based on RH1 (physchem [6]): > 20 times
half-life at 50 μM (physchem [6]; buffer, pH 7.4): > 24 h
half-life (esterase): 1 min
cleavage by porcine esterase to hydrolysis product (porcine liver esterase): rapidly cleaved
apoptosis (Annexin V binding) at 2 hours ([7]; 2 hours): no death is seen
apoptosis (Annexin V binding) after 4 hrs ([7]; after 4 hrs): reduced level of apoptosis
